From patent publication US10513521B2, “Compositions and methods for inhibiting BMP” (The Brigham and Women's Hospital, Inc., priority 2014, dated 2019)

What was measured:
ALK4 = target: T1, ALK4 (Homo sapiens, UniProt P36896); test: TR-FRET enzymatic ALK kinase assay, ALK4
T1 sequence (P36896 24-505): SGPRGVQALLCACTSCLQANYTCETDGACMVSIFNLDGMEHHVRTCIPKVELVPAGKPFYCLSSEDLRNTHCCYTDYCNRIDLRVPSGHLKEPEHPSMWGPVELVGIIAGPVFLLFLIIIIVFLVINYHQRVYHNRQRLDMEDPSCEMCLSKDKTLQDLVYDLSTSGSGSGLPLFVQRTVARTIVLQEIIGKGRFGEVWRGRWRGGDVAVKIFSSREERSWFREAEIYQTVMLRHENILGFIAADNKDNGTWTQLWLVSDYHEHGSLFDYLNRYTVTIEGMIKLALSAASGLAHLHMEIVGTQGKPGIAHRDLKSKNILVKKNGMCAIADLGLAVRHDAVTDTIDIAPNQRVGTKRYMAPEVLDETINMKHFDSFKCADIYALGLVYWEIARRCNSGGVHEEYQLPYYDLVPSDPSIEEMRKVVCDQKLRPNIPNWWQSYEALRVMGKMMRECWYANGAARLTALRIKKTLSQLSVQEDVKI
Experimental: (§1) Briefly, the ALKs enzymatic assay was initiated by dispense 2.5 μl enzyme in 1× kinase reaction buffer. The assay plate was then added with compounds followed by incubation at room temperature for 10 minutes. Then 2.5 μl/well substrate was added.

ALK3 = ALK3 (Homo sapiens, UniProt P36894); test: TR-FRET enzymatic ALK kinase assay, ALK3
Experimental: as §1

ALK2 = target: T2, ALK2 (Homo sapiens, UniProt Q04771); test: TR-FRET enzymatic ALK kinase assay, ALK2
T2 sequence (Q04771 21-509): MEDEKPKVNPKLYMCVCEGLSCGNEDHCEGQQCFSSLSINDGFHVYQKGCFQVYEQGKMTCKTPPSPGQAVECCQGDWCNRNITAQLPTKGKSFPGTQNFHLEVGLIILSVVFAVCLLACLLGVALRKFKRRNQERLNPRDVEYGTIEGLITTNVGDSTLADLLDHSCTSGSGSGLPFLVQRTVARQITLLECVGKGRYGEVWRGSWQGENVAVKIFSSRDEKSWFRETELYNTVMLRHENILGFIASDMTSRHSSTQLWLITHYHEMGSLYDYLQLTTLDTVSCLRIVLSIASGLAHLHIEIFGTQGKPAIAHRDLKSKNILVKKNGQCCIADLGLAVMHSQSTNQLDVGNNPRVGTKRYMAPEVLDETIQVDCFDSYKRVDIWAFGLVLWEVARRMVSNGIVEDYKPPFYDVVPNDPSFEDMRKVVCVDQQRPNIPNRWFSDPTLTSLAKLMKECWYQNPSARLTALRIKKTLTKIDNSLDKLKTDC
Experimental: as §1

ALK1 = ALK1 (Homo sapiens, UniProt P37023); test: TR-FRET enzymatic ALK kinase assay, ALK1
Experimental: as §1

ALK6 = ALK6 (Homo sapiens, UniProt O00238); test: TR-FRET enzymatic ALK kinase assay, ALK6
Experimental: as §1

ALK5 = target: T3, ALK5 (Homo sapiens, UniProt P36897); test: TR-FRET enzymatic ALK kinase assay, ALK5
T3 sequence (P36897 34-503): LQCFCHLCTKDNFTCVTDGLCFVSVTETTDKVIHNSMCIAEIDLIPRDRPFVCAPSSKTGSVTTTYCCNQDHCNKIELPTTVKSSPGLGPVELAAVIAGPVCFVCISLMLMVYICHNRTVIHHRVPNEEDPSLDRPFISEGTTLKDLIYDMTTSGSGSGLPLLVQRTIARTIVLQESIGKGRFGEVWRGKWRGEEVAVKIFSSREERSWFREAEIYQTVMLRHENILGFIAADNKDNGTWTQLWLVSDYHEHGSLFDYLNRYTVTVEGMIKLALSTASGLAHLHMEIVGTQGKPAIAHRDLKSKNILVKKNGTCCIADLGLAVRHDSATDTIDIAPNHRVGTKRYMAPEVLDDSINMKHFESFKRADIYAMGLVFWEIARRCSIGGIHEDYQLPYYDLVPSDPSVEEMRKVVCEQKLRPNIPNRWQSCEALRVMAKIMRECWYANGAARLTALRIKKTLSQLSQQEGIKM
Experimental: Six ALK kinase enzyme assays were developed for determination of compound activities on ALK1, ALK2, ALK3, ALK4, ALK5 and ALK6.
as §1

Sequence of ALK3 (P36894 24-532): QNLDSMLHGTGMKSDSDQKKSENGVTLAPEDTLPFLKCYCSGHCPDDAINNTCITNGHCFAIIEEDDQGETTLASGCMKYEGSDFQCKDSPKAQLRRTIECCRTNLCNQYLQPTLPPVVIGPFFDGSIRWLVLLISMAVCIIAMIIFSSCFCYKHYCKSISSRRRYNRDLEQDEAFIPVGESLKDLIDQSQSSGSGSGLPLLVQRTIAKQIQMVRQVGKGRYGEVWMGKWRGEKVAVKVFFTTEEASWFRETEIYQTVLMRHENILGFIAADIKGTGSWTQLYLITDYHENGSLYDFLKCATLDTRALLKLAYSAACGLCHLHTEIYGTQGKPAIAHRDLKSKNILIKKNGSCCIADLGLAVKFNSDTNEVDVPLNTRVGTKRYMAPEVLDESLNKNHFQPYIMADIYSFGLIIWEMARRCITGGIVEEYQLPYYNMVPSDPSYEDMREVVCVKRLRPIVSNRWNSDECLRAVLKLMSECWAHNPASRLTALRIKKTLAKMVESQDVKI
Sequence of ALK1 (P37023 22-503): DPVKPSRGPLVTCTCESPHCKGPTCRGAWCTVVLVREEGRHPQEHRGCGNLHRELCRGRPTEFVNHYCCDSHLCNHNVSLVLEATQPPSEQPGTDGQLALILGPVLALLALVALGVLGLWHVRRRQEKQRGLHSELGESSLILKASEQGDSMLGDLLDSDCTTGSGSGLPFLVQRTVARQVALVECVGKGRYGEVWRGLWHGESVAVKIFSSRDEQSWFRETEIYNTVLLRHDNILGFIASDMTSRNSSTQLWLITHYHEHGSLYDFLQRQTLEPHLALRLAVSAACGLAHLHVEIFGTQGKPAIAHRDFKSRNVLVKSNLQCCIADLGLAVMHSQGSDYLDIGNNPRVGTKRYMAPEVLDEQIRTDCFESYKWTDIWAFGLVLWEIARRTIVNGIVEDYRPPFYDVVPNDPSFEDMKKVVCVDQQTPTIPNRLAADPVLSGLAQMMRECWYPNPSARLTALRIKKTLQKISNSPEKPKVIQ
Sequence of ALK6 (O00238 14-502): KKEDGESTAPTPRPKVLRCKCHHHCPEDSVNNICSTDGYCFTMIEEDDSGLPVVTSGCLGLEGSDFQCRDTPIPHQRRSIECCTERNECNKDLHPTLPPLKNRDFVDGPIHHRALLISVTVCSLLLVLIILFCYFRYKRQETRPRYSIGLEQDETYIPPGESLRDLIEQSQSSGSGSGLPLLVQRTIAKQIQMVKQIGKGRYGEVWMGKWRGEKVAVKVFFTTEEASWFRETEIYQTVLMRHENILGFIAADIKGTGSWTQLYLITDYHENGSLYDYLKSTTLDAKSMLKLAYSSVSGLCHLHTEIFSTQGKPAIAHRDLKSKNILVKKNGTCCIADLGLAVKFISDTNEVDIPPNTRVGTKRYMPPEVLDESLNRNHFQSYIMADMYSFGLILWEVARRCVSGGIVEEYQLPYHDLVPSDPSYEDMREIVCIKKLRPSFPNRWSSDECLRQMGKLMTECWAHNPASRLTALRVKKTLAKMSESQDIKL

Compound | IC50 (ALK4) [µM] | IC50 (ALK3) [µM] | IC50 (ALK2) [µM] | IC50 (ALK1) [µM] | IC50 (ALK6) [µM] | IC50 (ALK5) [µM]
CS(=O)(=O)c1cccc(-c2cnn3cc(-c4ccc(OC5(CN6CCC(O)C6)CC5)cc4)cnc23)c1 (stereo not drawn) [Compound 195, 1-((1-(4-(3-(3-(methylsulfonyl)phenyl)pyrazolo[1,5-a]pyrimidin-6-yl)phenoxy)cyclopropyl)methyl)pyrrolidin-3-ol] | > 10 | 0.97 | 0.022 | 0.27 | > 10 | > 10
CC(O)c1cccc(-c2cnn3cc(-c4ccc(CCN5CCNCC5)cc4)cnc23)c1 (stereo not drawn) [Compound 171, 1-(3-(6-(4-(2-(piperazin-1-yl)ethyl)phenyl)pyrazolo[1,5-a]pyrimidin-3-yl)phenyl)ethanol] | > 10 | 2 | 0.17 | 1.1 | > 10 | > 10
C[C@H](O)c1cccc(-c2cnn3cc(-c4ccc(OC5(CN6CCC7(CC6)CNC7)CC5)cc4)cnc23)c1 [Compound 197, (S)-1-(3-(6-(4-(1-(2,7-diazaspiro[3.5]nonan-7-ylmethyl)cyclopropoxy)phenyl)pyrazolo[1,5-a]pyrimidin-3-yl)phenyl)ethanol] | > 10 | 2 | 0.052 | 0.5 | > 10 | > 10
CC(O)c1cccc(-c2cnn3cc(-c4ccc(OCCN5CCCCC5)cc4)cnc23)c1 (stereo not drawn) [Compound 142, 1-(3-(6-(4-(2-(piperidin-1-yl)ethoxy)phenyl)pyrazolo[1,5-a]pyrimidin-3-yl)phenyl)ethanol] | > 10 | 1.6 | 0.11 | 0.56 | > 10 | > 10
C[C@@H]1CNC[C@H](C)N1c1ccc(-c2cnc3c(-c4ccc(C(=O)C(F)(F)F)c5ccccc45)cnn3c2)cc1 [Compound 30, 1-(4-(6-(4-((2R,6S)-2,6-dimethylpiperazin-1-yl)phenyl)pyrazolo[1,5-a]pyrimidin-3-yl)naphthalen-1-yl)-2,2,2-trifluoroethanone] | 7.99 | 1.61 | 0.206 | 0.305 | 2.38 | 22.9
C[C@@H]1CNC[C@H](C)N1c1ccc(-c2cnc3c(-c4ccc(F)c(-c5nnn[nH]5)c4)cnn3c2)cc1 [Compound 72, 6-(4-((2R,6S)-2,6-dimethylpiperazin-1-yl)phenyl)-3-(4-fluoro-3-(1H-tetrazol-5-yl)phenyl)pyrazolo[1,5-a]pyrimidine] | > 10 | 0.22 | 0.016 | 0.12 | 0.33 | > 10
CC(O)c1cccc(-c2cnn3cc(-c4ccc(CCN5CCC(O)C5)cc4)cnc23)c1 (stereo not drawn) [Compound 148, 1-(4-(3-(3-(1-hydroxyethyl)phenyl)pyrazolo[1,5-a]pyrimidin-6-yl)phenethyl)pyrrolidin-3-ol] | > 10 | 6.4 | 0.15 | 0.79 | > 10 | > 10
C[C@H](O)c1cccc(-c2cnn3cc(-c4ccc(OCCN5CCCCC5)cc4)cnc23)c1 [Compound 201, (S)-1-(3-(6-(4-(2-(piperidin-1-yl)ethoxy)phenyl)pyrazolo[1,5-a]pyrimidin-3-yl)phenyl)ethanol] | > 10 | 1 | 0.043 | 1 | > 10 | > 10
C[C@@H](O)c1cccc(-c2cnn3cc(-c4ccc(CCN5CCC(O)C5)cc4)cnc23)c1 (stereo partly drawn) [Compound 155, 1-(4-(3-(3-((R)-1-hydroxyethyl)phenyl)pyrazolo[1,5-a]pyrimidin-6-yl)phenethyl)pyrrolidin-3-ol] | > 10 | 7.3 | 0.14 | 0.82 | > 10 | > 10
NC(c1ccc(-c2cnn3cc(-c4ccc(OCCN5CCCC5)cc4)cnc23)c2ccccc12)C(F)(F)F (stereo not drawn) [Compound 162, 2,2,2-trifluoro-1-(4-(6-(4-(2-(pyrrolidin-1-yl)ethoxy)phenyl)pyrazolo[1,5-a]pyrimidin-3-yl)naphthalen-1-yl)ethanamine] | > 10 | > 10 | 8.1 | > 10 | > 10 | > 10
C[S+](=O)([O-])c1cccc(-c2cnn3cc(-c4ccc(OC5(CN6CC(F)(F)C6)CC5)cc4)cnc23)c1 [Compound 176, 6-(4-(1-((3,3-difluoroazetidin-1-yl)methyl)cyclopropoxy)phenyl)-3-(3-(methylsulfonyl)phenyl)pyrazolo[1,5-a]pyrimidine] | > 10 | 2.4 | 0.068 | 0.72 | > 10 | > 10

The remaining lines, values ahead:

IC50 (ALK4) [µM] | IC50 (ALK3) [µM] | IC50 (ALK2) [µM] | IC50 (ALK1) [µM] | IC50 (ALK6) [µM] | IC50 (ALK5) [µM] | Compound
> 10 | 1.2 | 0.068 | 1.3 | 2.3 | > 10 | C[C@H](O)c1cccc(-c2cnn3cc(-c4ccc(OCCN5CCCC5)cc4)cnc23)c1 [Compound 200, (S)-1-(3-(6-(4-(2-(pyrrolidin-1-yl)ethoxy)phenyl)pyrazolo[1,5-a]pyrimidin-3-yl)phenyl)ethanol]
> 10 | > 10 | 0.015 | 0.2 | > 10 | > 10 | NS(=O)(=O)c1ccc(-c2cnn3cc(-c4ccc(OC5(CN6CCCCC6)CC5)cc4)cnc23)c2ccccc12 [Compound 208, 4-(6-(4-(1-(piperidin-1-ylmethyl)cyclopropoxy)phenyl)pyrazolo[1,5-a]pyrimidin-3-yl)naphthalene-1-sulfonamide]
12.7 | 4.86 | 0.249 | 1.31 | 17.4 | 18.5 | COc1ccc2ccccc2c1-c1cnn2cc(-c3ccc(N4[C@H](C)CNC[C@@H]4C)cc3)cnc12 [Compound 34, 6-(4-((2R,6S)-2,6-dimethylpiperazin-1-yl)phenyl)-3-(2-methoxynaphthalen-1-yl)pyrazolo[1,5-a]pyrimidine]
> 10 | > 10 | 0.17 | 0.47 | > 10 | > 10 | CC(O)c1cccc(-c2cnn3cc(-c4ccc(CCN5CCOCC5)cc4)cnc23)c1 (stereo not drawn) [Compound 147, 1-(3-(6-(4-(2-morpholinoethyl)phenyl)pyrazolo[1,5-a]pyrimidin-3-yl)phenyl)ethanol]
> 10 | > 10 | 0.069 | 0.34 | > 10 | > 10 | NC1(c2ccc(-c3cnc4c(-c5ccc(S(N)(=O)=O)c6ccccc56)cnn4c3)cc2)CNC1 [Compound 209, 4-(6-(4-(3-aminoazetidin-3-yl)phenyl)pyrazolo[1,5-a]pyrimidin-3-yl)naphthalene-1-sulfonamide]
> 10 | 1.6 | 0.043 | 0.79 | > 10 | > 10 | CC(O)c1cccc(-c2cnn3cc(-c4ccc(OC5(CN6CCC(O)CC6)CC5)cc4)cnc23)c1 (stereo not drawn) [Compound 174]
> 10 | 2.3 | 0.023 | 0.32 | > 10 | > 10 | C[S+](=O)([O-])c1cccc(-c2cnn3cc(-c4ccc(OC5(CN6CCC7(CC6)CNC7)CC5)cc4)cnc23)c1 [Compound 184, 6-(4-(1-(2,7-diazaspiro[3.5]nonan-7-ylmethyl)cyclopropoxy)phenyl)-3-(3-(methylsulfonyl)phenyl)pyrazolo[1,5-a]pyrimidine]
